Experimental data from ChEMBL document CHEMBL1667854, “6''-Azido-6''-deoxy-UDP-N-acetylglucosamine as a glycosyltransferase substrate” (Bioorg Med Chem Lett, 2011).
Activity calls are given as the source filed them. No cut-off for these calls is given here.

Molecular target: T1, UDP-N-acetylglucosamine--peptide N-acetylglucosaminyltransferase 110 kDa subunit (Homo sapiens) (UniProt O15294)
T1 sequence (whole entry): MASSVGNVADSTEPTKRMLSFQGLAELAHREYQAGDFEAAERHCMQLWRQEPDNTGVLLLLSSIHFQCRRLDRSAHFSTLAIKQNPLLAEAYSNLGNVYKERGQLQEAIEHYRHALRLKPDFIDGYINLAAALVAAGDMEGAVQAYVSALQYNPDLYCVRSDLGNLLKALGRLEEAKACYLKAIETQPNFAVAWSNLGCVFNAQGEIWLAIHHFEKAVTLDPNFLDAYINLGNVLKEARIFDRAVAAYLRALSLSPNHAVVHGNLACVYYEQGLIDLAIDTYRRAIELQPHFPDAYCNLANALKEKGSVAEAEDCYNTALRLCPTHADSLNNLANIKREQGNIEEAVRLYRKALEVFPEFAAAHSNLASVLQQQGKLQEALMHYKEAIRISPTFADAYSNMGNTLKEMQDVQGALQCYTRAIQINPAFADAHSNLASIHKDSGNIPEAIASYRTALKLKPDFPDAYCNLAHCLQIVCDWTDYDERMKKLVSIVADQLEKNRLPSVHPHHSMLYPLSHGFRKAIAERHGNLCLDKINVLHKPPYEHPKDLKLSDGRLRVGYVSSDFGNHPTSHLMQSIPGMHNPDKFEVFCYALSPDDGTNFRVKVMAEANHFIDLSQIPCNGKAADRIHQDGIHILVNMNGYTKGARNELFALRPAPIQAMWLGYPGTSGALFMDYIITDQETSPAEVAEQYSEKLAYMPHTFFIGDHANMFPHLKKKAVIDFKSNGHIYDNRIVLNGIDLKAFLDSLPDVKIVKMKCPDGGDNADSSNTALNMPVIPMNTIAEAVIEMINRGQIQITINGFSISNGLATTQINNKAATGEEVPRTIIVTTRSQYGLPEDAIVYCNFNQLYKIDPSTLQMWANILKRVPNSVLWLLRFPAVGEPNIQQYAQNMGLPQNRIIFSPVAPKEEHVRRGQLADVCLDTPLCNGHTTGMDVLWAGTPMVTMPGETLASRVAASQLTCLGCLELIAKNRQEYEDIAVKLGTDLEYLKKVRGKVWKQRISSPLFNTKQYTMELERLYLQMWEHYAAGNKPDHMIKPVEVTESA
Test: Activity at human OGT by Western blot analysis

Row | SMILES | Activity
1 | CC(=O)N[C@H]1[C@@H](OP(=O)(O)OP(=O)(O)OC[C@H]2O[C@@H](n3ccc(=O)[nH]c3=O)[C@H](O)[C@@H]2O)O[C@H](CN=[N+]=[N-])[C@@H](O)[C@@H]1O | Active
2 | CC(=O)N[C@@H]1[C@@H](O)[C@H](O)[C@@H](CN=[N+]=[N-])O[C@@H]1O | Active
